According to ChEMBL document CHEMBL4020826 (J Med Chem, 2018):

Columns and labels:
[1] = Plasma concentration in Sprague-Dawley rat at 10 mg/kg, sc administered as single dose measured after 1 hr post dose by LC-MS/MS analysis; assay type: ADME, organism-based
[2] = Drug metabolism in dog liver microsomes at 4 uM; assay type: ADME, Canis lupus familiaris, microsome; details: read-out: Drug metabolism
[3] = Drug metabolism in mouse liver microsomes at 4 uM; assay type: ADME, microsome; details: read-out: Drug metabolism
[4] = Volume of distribution at steady state in Sprague-Dawley rat at 1 mg/kg, iv measured over 8 hrs by LC-MS/MS analysis; assay type: ADME, organism-based; details: in vivo, read-out: Vdss
[5] = Half life in Sprague-Dawley rat at 3 mg/kg, sc measured over 8 hrs by LC-MS/MS analysis; assay type: ADME, organism-based; details: in vivo
[6] = Drug level in Sprague-Dawley rat CSF at 0.5 mg/kg/day, sc administered via infusion measured after 72 hrs post dose by LC-MS/MS analysis; assay type: ADME, organism-based, Cerebrospinal fluid; details: read-out: Drug uptake
[7] = Clearance in Sprague-Dawley rat at 1 mg/kg, iv measured over 8 hrs by LC-MS/MS analysis; assay type: ADME, organism-based; details: in vivo
[8] = biological target: T1, Metabotropic glutamate receptor 2 (Homo sapiens, UniProt Q14416); assay: Displacement of [3H]-LY459477 from recombinant human mGlu2 receptor expressed in HEK cell membranes after 90 mins by liquid scintillation counting
[9] = biological target: T2, Metabotropic glutamate receptor 7 (Homo sapiens, UniProt Q14831); assay: Antagonist activity at recombinant human mGlu7 receptor expressed in hamster AV12 cells co-expressing rat EAAT1/Galpha15 assessed as inhibition of glutamate induced increase in Ca2+ flux after 2.5 mins by Fluo-3 AM dye-based FLIPR assay; assay type: functional, cell-based
[10] = biological target: Metabotropic glutamate receptor 8 (Homo sapiens, UniProt O00222); assay: Agonist activity at recombinant human mGlu8 receptor expressed in hamster AV12 cells co-expressing rat EAAT1/Galpha15 assessed as induction of increase in Ca2+ flux after 2.5 mins by Fluo-3 AM dye-based FLIPR assay; assay type: functional, cell-based
[11] = Drug level in Sprague-Dawley rat CSF at 5 mg/kg/day, sc administered via infusion measured after 72 hrs post dose by LC-MS/MS analysis; assay type: ADME, organism-based, Cerebrospinal fluid; details: read-out: Drug uptake
[12] = biological target: T3, Metabotropic glutamate receptor 4 (Homo sapiens, UniProt Q14833); assay: Agonist activity at recombinant human mGlu4 receptor expressed in hamster AV12 cells co-expressing rat EAAT1/Galpha15 assessed as induction of increase in Ca2+ flux after 2.5 mins by Fluo-3 AM dye-based FLIPR assay; assay type: functional, cell-based
[13] = Plasma concentration in Sprague-Dawley rat at 3 mg/kg, sc administered as single dose measured after 1 hr post dose by LC-MS/MS analysis; assay type: ADME, organism-based
[14] = Drug level in Sprague-Dawley rat CSF at 10 mg/kg, sc administered as single dose measured after 1 hr post dose by LC-MS/MS analysis; assay type: ADME, organism-based, Cerebrospinal fluid; details: read-out: Drug uptake
[15] = Plasma concentration in Sprague-Dawley rat at 0.5 mg/kg/day, sc administered via infusion measured after 12 hrs post dose by LC-MS/MS analysis; assay type: ADME, organism-based
[16] = Plasma concentration in Sprague-Dawley rat at 15 mg/kg/day, sc administered via infusion measured after 12 hrs post dose by LC-MS/MS analysis; assay type: ADME, organism-based
[17] = Plasma concentration in Sprague-Dawley rat at 0.5 mg/kg/day, sc administered via infusion measured after 6 hrs post dose by LC-MS/MS analysis; assay type: ADME, organism-based
[18] = Plasma concentration in Sprague-Dawley rat at 1.5 mg/kg/day, sc administered via infusion measured after 72 hrs post dose by LC-MS/MS analysis; assay type: ADME, organism-based
[19] = biological target: Voltage-gated inwardly rectifying potassium channel KCNH2 (Homo sapiens, UniProt Q12809); assay: Displacement of [3H]-dofetilide from human ERG
[20] = Plasma concentration in Sprague-Dawley rat at 15 mg/kg/day, sc administered via infusion measured after 24 hrs post dose by LC-MS/MS analysis; assay type: ADME, organism-based
[21] = Plasma concentration in Sprague-Dawley rat at 5 mg/kg/day, sc administered via infusion measured after 24 hrs post dose by LC-MS/MS analysis; assay type: ADME, organism-based
[22] = Drug level in Sprague-Dawley rat CSF at 0.3 mg/kg, sc administered as single dose measured after 1 hr post dose by LC-MS/MS analysis; assay type: ADME, organism-based, Cerebrospinal fluid; details: read-out: Drug uptake
Rattus norvegicus = species: Rattus norvegicus; assay: Drug metabolism in Sprague-Dawley rat assessed as (1S,2S,4S,5R,6S)-di-tert-butyl 4-amino-2-(tert-butoxycarbonylamino)bicyclo[3.1.0]hexane-2,6-dicarboxylate formation measured over 24 hrs; assay type: ADME
[23] = biological target: Group II metabotropic glutamate receptor (mGlu2/mGlu3) (Rattus norvegicus) (UniProt P31421+P31422); details: Sprague-Dawley
Description: Agonist activity at mGlu2/3 receptor in Sprague-Dawley rat forebrain assessed as inhibition of spontaneous Ca2+ oscillations in cortical neurons after 300 secs by FLIPR assay

[24] = biological target: Metabotropic glutamate receptor 5 (Homo sapiens, UniProt P41594); assay: Agonist activity at recombinant human mGlu5 receptor expressed in hamster AV12 cells co-expressing rat EAAT1/Galpha15 assessed as induction of increase in Ca2+ flux after 2.5 mins by Fluo-3 AM dye-based FLIPR assay; assay type: functional, cell-based
[25] = biological target: T1, Metabotropic glutamate receptor 2; assay: Agonist activity at human mGlu2 receptor expressed in HEK cells assessed as inhibition of forskolin-stimulated cAMP formation after 20 mins by HTRF assay; assay type: functional, cell-based
[26] = AUC in Sprague-Dawley rat at 3 mg/kg, sc measured over 8 hrs by LC-MS/MS analysis; assay type: ADME, organism-based; design: dose 3 mg/kg, time < 8 hr, route subcutaneous; details: in vivo
[27] = Plasma concentration in Sprague-Dawley rat at 0.1 mg/kg, sc administered as single dose measured after 1 hr post dose by LC-MS/MS analysis; assay type: ADME, organism-based
[28] = Plasma concentration in Sprague-Dawley rat at 0.5 mg/kg/day, sc administered via infusion measured after 48 hrs post dose by LC-MS/MS analysis; assay type: ADME, organism-based
[29] = biological target: T4, Metabotropic glutamate receptor 1 (Homo sapiens, UniProt Q13255); assay: Antagonist activity at recombinant human mGlu1 receptor expressed in hamster AV12 cells co-expressing rat EAAT1/Galpha15 assessed as inhibition of glutamate induced increase in Ca2+ flux after 2.5 mins by Fluo-3 AM dye-based FLIPR assay; assay type: functional, cell-based
[30] = Plasma concentration in Sprague-Dawley rat at 5 mg/kg/day, sc administered via infusion measured after 6 hrs post dose by LC-MS/MS analysis; assay type: ADME, organism-based
[31] = Plasma concentration in Sprague-Dawley rat at 5 mg/kg/day, sc administered via infusion measured after 48 hrs post dose by LC-MS/MS analysis; assay type: ADME, organism-based
[32] = biological target: T2, Metabotropic glutamate receptor 7; assay: Agonist activity at recombinant human mGlu7 receptor expressed in hamster AV12 cells co-expressing rat EAAT1/Galpha15 assessed as induction of increase in Ca2+ flux after 2.5 mins by Fluo-3 AM dye-based FLIPR assay; assay type: functional, cell-based
[33] = Tmax in Sprague-Dawley rat at 3 mg/kg, sc measured over 8 hrs by LC-MS/MS analysis; assay type: ADME, organism-based; details: in vivo
[34] = biological target: T4, Metabotropic glutamate receptor 1; assay: Agonist activity at recombinant human mGlu1 receptor expressed in hamster AV12 cells co-expressing rat EAAT1/Galpha15 assessed as induction of increase in Ca2+ flux after 2.5 mins by Fluo-3 AM dye-based FLIPR assay; assay type: functional, cell-based
[35] = biological target: T3, Metabotropic glutamate receptor 4; assay: Antagonist activity at recombinant human mGlu4 receptor expressed in hamster AV12 cells co-expressing rat EAAT1/Galpha15 assessed as inhibition of glutamate induced increase in Ca2+ flux after 2.5 mins by Fluo-3 AM dye-based FLIPR assay; assay type: functional, cell-based

T3 sequence (Q14833 whole entry): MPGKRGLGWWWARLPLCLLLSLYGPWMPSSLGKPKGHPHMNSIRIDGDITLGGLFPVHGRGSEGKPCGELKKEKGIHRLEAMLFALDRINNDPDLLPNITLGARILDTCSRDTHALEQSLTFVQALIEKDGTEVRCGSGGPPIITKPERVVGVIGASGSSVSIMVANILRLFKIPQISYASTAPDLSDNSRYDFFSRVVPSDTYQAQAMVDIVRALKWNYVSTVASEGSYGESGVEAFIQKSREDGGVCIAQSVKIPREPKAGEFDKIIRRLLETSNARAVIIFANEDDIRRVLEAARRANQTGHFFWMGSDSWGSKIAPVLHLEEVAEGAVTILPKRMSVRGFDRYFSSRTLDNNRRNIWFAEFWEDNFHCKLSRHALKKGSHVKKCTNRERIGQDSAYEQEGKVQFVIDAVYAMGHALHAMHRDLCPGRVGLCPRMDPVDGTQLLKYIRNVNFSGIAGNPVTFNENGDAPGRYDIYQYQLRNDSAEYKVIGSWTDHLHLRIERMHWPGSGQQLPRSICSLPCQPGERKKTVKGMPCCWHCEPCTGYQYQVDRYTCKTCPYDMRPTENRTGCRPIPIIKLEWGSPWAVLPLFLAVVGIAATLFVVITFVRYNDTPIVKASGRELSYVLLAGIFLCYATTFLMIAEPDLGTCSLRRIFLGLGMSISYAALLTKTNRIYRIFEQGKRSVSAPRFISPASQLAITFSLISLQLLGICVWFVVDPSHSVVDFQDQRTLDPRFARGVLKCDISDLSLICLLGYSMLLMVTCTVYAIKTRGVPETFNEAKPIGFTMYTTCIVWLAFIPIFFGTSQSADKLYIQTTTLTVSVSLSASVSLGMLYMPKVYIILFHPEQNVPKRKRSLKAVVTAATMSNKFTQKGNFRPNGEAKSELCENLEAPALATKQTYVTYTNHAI
T4 sequence (Q13255 whole entry, the tested form may be a part): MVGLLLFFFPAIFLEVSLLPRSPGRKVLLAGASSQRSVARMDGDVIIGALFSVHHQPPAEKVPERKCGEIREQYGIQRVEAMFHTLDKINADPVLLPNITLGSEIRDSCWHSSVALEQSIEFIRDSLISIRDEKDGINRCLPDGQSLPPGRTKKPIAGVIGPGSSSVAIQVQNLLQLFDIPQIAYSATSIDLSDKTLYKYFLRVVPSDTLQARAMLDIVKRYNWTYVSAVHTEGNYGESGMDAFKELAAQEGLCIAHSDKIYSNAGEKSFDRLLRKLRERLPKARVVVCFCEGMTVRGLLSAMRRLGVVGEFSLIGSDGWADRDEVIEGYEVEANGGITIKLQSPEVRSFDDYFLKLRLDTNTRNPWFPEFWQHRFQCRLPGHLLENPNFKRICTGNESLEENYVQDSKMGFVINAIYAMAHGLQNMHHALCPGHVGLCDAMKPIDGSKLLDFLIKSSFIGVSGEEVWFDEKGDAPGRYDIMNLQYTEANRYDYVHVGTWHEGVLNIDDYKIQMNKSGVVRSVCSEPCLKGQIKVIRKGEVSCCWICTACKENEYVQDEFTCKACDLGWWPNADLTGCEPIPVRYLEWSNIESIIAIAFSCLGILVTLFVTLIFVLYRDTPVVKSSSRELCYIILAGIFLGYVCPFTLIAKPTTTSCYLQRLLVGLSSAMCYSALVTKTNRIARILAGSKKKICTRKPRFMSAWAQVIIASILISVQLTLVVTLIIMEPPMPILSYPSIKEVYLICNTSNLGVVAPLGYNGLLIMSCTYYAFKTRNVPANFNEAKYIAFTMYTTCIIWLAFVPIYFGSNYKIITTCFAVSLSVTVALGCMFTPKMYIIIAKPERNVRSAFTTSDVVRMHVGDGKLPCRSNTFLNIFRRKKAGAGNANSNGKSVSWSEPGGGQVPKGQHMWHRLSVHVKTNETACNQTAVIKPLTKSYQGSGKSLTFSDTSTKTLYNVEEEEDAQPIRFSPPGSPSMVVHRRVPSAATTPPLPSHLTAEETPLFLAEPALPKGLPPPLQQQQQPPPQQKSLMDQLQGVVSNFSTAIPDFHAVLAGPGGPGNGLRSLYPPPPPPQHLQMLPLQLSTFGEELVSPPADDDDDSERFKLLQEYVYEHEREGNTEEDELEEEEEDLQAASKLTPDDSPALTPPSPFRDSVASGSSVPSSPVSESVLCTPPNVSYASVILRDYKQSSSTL
T1 sequence (Q14416 whole entry): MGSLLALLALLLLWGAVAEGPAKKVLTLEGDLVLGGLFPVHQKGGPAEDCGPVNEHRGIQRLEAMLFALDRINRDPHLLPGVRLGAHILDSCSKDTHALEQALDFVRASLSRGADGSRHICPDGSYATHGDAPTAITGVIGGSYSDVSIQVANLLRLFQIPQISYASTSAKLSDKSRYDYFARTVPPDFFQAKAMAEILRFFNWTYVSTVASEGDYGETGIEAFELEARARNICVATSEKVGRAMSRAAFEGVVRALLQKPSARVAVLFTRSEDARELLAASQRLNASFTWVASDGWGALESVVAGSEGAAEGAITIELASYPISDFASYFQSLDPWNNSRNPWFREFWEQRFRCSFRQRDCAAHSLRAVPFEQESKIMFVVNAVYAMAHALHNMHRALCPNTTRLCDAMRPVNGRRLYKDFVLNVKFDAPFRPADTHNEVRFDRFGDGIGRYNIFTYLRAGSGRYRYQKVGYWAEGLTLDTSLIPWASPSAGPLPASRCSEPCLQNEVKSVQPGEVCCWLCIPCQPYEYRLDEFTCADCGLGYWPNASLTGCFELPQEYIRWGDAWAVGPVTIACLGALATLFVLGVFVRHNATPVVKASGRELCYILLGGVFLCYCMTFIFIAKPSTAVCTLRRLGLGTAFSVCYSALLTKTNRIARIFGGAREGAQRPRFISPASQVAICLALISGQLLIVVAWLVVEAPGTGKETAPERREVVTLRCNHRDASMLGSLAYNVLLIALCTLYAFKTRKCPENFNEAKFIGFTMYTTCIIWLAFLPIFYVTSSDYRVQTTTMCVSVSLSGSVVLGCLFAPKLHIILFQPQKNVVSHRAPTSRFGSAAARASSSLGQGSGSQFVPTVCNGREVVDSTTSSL
Sequence of Group II metabotropic glutamate receptor (mGlu2/mGlu3) (Rattus norvegicus) (P31421 whole entry, looked up): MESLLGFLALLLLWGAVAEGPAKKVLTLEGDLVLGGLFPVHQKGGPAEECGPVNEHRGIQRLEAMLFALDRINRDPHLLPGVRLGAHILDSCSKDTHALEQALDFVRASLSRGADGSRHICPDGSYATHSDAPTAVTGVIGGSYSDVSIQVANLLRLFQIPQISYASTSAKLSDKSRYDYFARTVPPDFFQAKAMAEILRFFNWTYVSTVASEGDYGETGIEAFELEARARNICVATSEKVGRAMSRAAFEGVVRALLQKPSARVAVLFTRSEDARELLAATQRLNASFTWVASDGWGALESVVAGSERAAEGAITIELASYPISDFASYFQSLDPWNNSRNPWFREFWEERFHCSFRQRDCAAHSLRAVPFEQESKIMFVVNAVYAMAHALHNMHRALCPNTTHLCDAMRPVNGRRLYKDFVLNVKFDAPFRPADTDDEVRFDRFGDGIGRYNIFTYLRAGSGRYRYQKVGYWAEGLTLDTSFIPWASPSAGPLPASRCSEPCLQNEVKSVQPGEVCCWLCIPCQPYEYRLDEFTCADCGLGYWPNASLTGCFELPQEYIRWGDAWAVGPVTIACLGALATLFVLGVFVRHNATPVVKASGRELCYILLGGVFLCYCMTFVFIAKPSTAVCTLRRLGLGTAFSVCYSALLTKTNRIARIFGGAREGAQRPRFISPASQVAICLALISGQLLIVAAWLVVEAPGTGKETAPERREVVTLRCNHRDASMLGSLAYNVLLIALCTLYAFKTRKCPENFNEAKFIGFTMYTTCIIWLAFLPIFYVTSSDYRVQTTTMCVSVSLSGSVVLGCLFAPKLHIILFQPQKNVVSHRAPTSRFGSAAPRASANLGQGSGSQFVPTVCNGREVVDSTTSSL
Sequence of Group II metabotropic glutamate receptor (mGlu2/mGlu3) (Rattus norvegicus) (P31422 whole entry, looked up): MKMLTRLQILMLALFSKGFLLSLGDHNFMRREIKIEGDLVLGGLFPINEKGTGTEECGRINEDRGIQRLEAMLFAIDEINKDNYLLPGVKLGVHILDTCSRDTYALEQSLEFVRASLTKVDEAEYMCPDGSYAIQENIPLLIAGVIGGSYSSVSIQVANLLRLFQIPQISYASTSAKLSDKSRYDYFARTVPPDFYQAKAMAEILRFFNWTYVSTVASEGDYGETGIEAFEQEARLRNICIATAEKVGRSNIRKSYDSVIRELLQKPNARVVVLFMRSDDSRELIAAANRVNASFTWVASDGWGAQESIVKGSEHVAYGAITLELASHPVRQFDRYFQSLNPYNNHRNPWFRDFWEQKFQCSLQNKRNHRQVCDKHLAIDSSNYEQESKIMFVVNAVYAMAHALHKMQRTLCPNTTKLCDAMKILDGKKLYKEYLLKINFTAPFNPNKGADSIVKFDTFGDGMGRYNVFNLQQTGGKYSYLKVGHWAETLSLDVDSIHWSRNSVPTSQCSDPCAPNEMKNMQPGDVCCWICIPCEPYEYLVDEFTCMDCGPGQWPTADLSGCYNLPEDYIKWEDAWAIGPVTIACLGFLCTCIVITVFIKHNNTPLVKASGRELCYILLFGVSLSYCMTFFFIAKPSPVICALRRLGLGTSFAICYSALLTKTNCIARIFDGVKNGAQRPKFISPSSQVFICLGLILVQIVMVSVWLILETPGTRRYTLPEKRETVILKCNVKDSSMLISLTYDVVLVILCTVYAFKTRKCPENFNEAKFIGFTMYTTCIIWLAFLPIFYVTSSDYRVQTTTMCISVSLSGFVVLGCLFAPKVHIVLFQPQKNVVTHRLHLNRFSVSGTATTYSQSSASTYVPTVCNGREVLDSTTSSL

## COc1cccc(C(=O)N[C@H]2C[C@@](N)(C(=O)O)[C@@H]3[C@@H](C(=O)O)[C@@H]32)c1
[1]
  concentration at 1 h: 25900 nM
[2]
  metabolised at 4 µM: 28.9%
[3]
  metabolised at 4 µM: 11.5%
[4]
  Vd: 1.17 L/kg
[5]
  half-life: 2.9 h
[6]
  concentration at 72 h: < 7.5 nM
[7]
  clearance: 18.3 mL/min/kg
[8]
  Ki: 0.412 µM
[9]
  IC50: > 12.5 µM
[10]
  EC50: > 25 µM
[11]
  concentration at 72 h: 25.2 nM
[12]
  EC50: 11.8 µM
[13]
  concentration at 1 h: 7180 nM
[14]
  concentration at 1 h: 249 nM
[15]
  concentration at 12 h: 143 nM
[16]
  concentration at 12 h: 3070 nM
[17]
  concentration at 6 h: 156 nM
[18]
  concentration at 72 h: 361 nM
[19]
  inhibition (INH): Not Active
[20]
  concentration at 24 h: 3170 nM
[21]
  concentration at 24 h: 1300 nM
[22]
  concentration at 1 h: 6.91 nM
Rattus norvegicus
  Drug metabolism: < 2.5 nM
[23]
  EC50H: 0.00044 µM
  EC50L: 0.0436 µM
[24]
  EC50: > 25 µM
[25]
  EC50: 0.0475 µM
[26]
  AUC at 8 h: 9.88 µM·h
[27]
  concentration at 1 h: 286 nM
[28]
  concentration at 48 h: 95.1 nM
[29]
  IC50: > 12.5 µM
[30]
  concentration at 6 h: 1280 nM
[31]
  concentration at 48 h: 871 nM
[32]
  EC50: > 25 µM
[33]
  Tmax: 0.44 h
[34]
  EC50: > 25 µM
[35]
  IC50: > 12.5 µM
